Measurements taken from patent KR20140134170A, “신경염증 질환의 예방 또는 치료용 약학 조성물” (이화여자대학교 산학협력단, priority 2013, dated 2014).

Legend:
AP-1 = AP-1 DNA complex formation in LPS-activated BV2 microglia (EMSA); assay type: cell-based, mouse; settings: LPS 100 ng/ml 3 h, compound 1 h before LPS
[1] = system: intracellular reactive oxygen species [세포내 활성산소종 (reactive oxygen species; ROS)]; assay: Intracellular reactive oxygen species in LPS-activated BV2 microglia (H2DCF-DA fluorescence); assay type: cell-based, mouse
IL-10 = IL-10 production by LPS-activated BV2 microglia (sandwich ELISA); assay type: cell-based, mouse; settings: LPS 100 ng/ml, compound 1 h before LPS
MK2 = MK2 activation in LPS-activated BV2 microglia (western blot, p-MK2); assay type: cell-based, mouse; settings: LPS 100 ng/ml 3 h, compound 1 h before LPS
brain cells [뇌세포] = assay: Brain cell damage in ischemic stroke model MCAo/Rep (Nissl staining); assay type: in vivo, rat; settings: 5 mg/kg i.p. once immediately after reperfusion; cortex and striatum; 22 h after reperfusion
[2] = Brain infarct volume in ischemic stroke model MCAo/Rep (TTC staining); assay type: in vivo, rat; settings: 5 mg/kg i.p. once immediately after reperfusion, 22 h after reperfusion
IL-6 = IL-6 production by LPS-activated BV2 microglia (sandwich ELISA); assay type: cell-based, mouse; settings: LPS 100 ng/ml, compound 1 h before LPS
[3] = Neurological score in ischemic stroke model MCAo/Rep; assay type: in vivo, rat; settings: 5 mg/kg i.p. once immediately after reperfusion; vs control; P=0.0047
IL-1β = IL-1β protein expression in cerebral cortex of LPS systemic inflammation mice (western blot); assay type: in vivo, mouse; settings: 3 h after LPS, vs vehicle
microglia [소교세포] [4] = assay: Microglial activation in ischemic stroke model MCAo/Rep (Iba-1 immunohistochemistry); assay type: in vivo, rat; settings: 5 mg/kg i.p. once immediately after reperfusion; stroke hemisphere; 22 h after reperfusion; stroke control 138.8±7.4; P<0.01
TNF-α [5] = assay: Cerebrospinal fluid TNF-α in LPS systemic inflammation mice (sandwich ELISA); assay type: in vivo, mouse; settings: vs vehicle
TNF-α [6] = assay: Serum TNF-α in LPS systemic inflammation mice (sandwich ELISA); assay type: in vivo, mouse; settings: 3 h after LPS
JNK = JNK activation in LPS-activated BV2 microglia (western blot, p-JNK); assay type: cell-based, mouse; settings: LPS 100 ng/ml 3 h, compound 1 h before LPS
nitric oxide [산화질소] = assay: Nitric oxide production by LPS-activated BV2 microglia (Griess reaction); assay type: cell-based, mouse; settings: LPS 100 ng/ml, compound 1 h before LPS
TNF-α [7] = assay: TNF-α release from LPS-activated BV2 microglia (sandwich ELISA); assay type: cell-based, mouse; settings: LPS 100 ng/ml, compound 1 h before LPS
p38 = p38 activation in LPS-activated BV2 microglia (western blot, p-p38); assay type: cell-based, mouse; settings: LPS 100 ng/ml 3 h, compound 1 h before LPS
ERK = ERK activation in LPS-activated BV2 microglia (western blot, p-ERK); assay type: cell-based, mouse; settings: LPS 100 ng/ml 3 h, compound 1 h before LPS
microglia [소교세포] [8] = assay: Microglial activation in cerebral cortex of LPS systemic inflammation mice (Iba1 immunofluorescence); assay type: in vivo, mouse; settings: 3 h after LPS
TNF-α [9] = assay: TNF-α protein expression in cerebral cortex of LPS systemic inflammation mice (western blot); assay type: in vivo, mouse; settings: 3 h after LPS, vs vehicle
NF-κB = NF-κB DNA complex formation in LPS-activated BV2 microglia (EMSA); assay type: cell-based, mouse; settings: LPS 100 ng/ml 3 h, compound 1 h before LPS
TNF-α [10] = assay: TNF-α producing cells in ischemic stroke model MCAo/Rep (immunohistochemistry); assay type: in vivo, rat; settings: 5 mg/kg i.p. once immediately after reperfusion; stroke hemisphere; 22 h after reperfusion; stroke control 648.3±64.70; P<0.05

COc1ccc(S(=O)(=O)N2Cc3ccccc3C[C@@H]2C(=O)NO)cc1 [본 발명의 화합물, (3R)-(+)-[2-(4-메톡시벤젠설포닐)-1,2,3,4-테트라하이드로이소퀴놀린-3-하이드록사메이트]
AP-1 complex formation (AP-1): 감소됨 | intracellular reactive oxygen species ([1]; compound at 10 μM or more, compared with control): 대조군과 유사한 수준으로 감소됨 | intracellular reactive oxygen species ([1]; concentration dependence): 농도 의존적으로 억제함 | IL-10 production (IL-10): 생성을 증가시키는 것 | activated MK2 (MK2): 농도 의존적으로 감소함 | brain cell damage by stroke (brain cells [뇌세포]): 극명하게 감소 | infarct volume (infarct volume / whole brain volume × 100) ([2]; MCAo/Rep control 29.17%): 18.90% | decrease of infarct size vs control ([2]; P=0.0452): ~35.21% | IL-6 production (IL-6): 농도 의존적으로 억제됨 | neurological score (maximum 18) [3]: 유의적 감소 | IL-1β expression in cerebral cortex (IL-1β; 1 mg/kg i.p.): 비이클 투여와 차이가 없었으나 | decrease of IL-1β expression in cerebral cortex (IL-1β; 5 mg/kg i.p.): 50% | number of activated microglia (microglia [소교세포] [4]): 47.67±10.73 cells | cerebrospinal fluid TNF-α level (TNF-α [5]; 1 mg/kg i.p. daily from 4 days before LPS): 통계적으로 의미있는 TNF-α발현 감소 | cerebrospinal fluid TNF-α level (TNF-α [5]; 5 mg/kg i.p. daily from 4 days before LPS): 통계적으로 의미있는 TNF-α발현 감소 | serum TNF-α level (TNF-α [6]; 5 mg/kg i.p. daily from 4 days before LPS 5 mg/kg i.p.): 현저히 감소 | serum TNF-α level (TNF-α [6]; 1 and 5 mg/kg i.p. daily from 4 days before LPS 5 mg/kg i.p., dose dependence): 용량의존적으로 TNF-α수준이 감소 | activated JNK (JNK): 농도 의존적으로 감소함 | nitric oxide production (nitric oxide [산화질소]): 농도 의존적으로 억제됨 | TNF-α production (TNF-α [7]): 현저하게 감소됨 | activated p38 (p38): 농도 의존적으로 감소함 | activated ERK (ERK): 농도 의존적으로 감소함 | number of activated microglia (microglia [소교세포] [8]; 1 mg/kg i.p., vs vehicle): 비이클 투여와 차이가 없었으나 | number of activated Iba1-labelled cells (microglia) (microglia [소교세포] [8]; 5 mg/kg i.p., area 500 μm2, control 10.12±1.45, LPS 41.17±2.95, p<0.01 vs vehicle): 20.0±3.82 | TNF-α expression in cerebral cortex (TNF-α [9]; 1 mg/kg i.p.): 비이클 투여와 차이가 없었으나 | decrease of TNF-α expression in cerebral cortex (TNF-α [9]; 5 mg/kg i.p.): 40% | NF-κB complex formation (NF-κB): 감소됨 | number of TNF-α producing cells (TNF-α [10]): 402.8±74.73 cells
